The target of assay [1] is T1, SirT2 (Homo sapiens, UniProt Q8IXJ6).
T1 sequence (Q8IXJ6 56-356): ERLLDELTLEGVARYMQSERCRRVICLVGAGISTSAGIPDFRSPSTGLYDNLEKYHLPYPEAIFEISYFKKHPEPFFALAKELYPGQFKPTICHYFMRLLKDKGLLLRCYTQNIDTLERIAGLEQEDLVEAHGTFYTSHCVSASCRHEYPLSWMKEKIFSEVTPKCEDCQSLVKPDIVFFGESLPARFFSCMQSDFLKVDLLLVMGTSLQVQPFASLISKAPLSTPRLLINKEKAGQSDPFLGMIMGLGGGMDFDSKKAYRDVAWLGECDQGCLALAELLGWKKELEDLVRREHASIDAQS
The experiment in a line: FLuc K529ac-based KDAC assay, inhibition or activation of SirT2 deacetylation.
Procedure: Typical endpoint deacetylation reactions contain: 30 nM Firefly Luciferase K529ac, 1 mM NAD^+, 1 μg/ml KDAC in 50 μl KDAC buffer (25 mM Tris/HCl pH 8.0, 137 mM NaCl, 2.7 mM KCl, 1 mM MgCl2, 1 mM DTT, 1 mg/ml BSA). The reactions are incubated for 1 h at 25° C. Luciferase activity is then assayed by addition of an equal volume of a mixture containing 40 mM Tricine, 200 μM EDTA, 7.4 mM MgSO4, 2 mM NaHCO3, 34 mM DTT, 0.5 mM ATP and 0.5 mM luciferin, pH 7.8^4. Luminescence is quantified using a FluoStar Omega Microplate Reader (BMG Labtech).
The continuous FLuc-based KDAC assay was set up by mixing all the components of the endpoint assay immediately. Usually NAD^+ was omitted initially and added from a 20-fold stock solution after 5 min preincubation to start the reaction. Luminescence was recorded every minute over a period of 30 min. KDAC activity was calculated from the slope of the linear phase of the reaction.
The effect of the compounds was analyzed at 10 μM on SirT2 activity using the FLuc K529ac assay in endpoint format.

Assay [2] relates to KDACs. The experiment in a line: FLuc K529ac activation by different KDACs. Type of assay: biochemical. The settings on record: purified FLuc K529ac. Here is the method: FIG. 7: FLuc K529ac activation by different KDACs. Sirtuins were used at 20 μg/ml, while HDAC8 concentration was 10 mg/ml with tenfold higher FLuc K529ac. All error bars are standard deviations of triplicates.
It was tested whether purified FLuc K529ac can be used to quantify KDAC activity by incubating it with various different KDACs (FIG. 7). Prior to treatment with a KDAC the enzyme produced very little bioluminescence. After incubation with various KDACs the luminescence increased up to 130 fold.

With `Oc1cc(O)cc(/C=C/c2ccc(O)c(O)c2)c1` [Compound 2, piceatannol], it took 5.5 µM to reach half-maximal inhibition in assay [1] (IC50). As for “FLuc K529ac: Firefly luciferase with N(ε)-acetyl-lysine in place of K529, reporter substrate for KDACs”, the “Luminescence increase after incubation with various KDACs” value in assay [2] is given as “up to 130 fold”.
